Here are results for five compounds from paper PMC12555108, “In‐vitro Assessment of BCRP‐Mediated Efflux of Antiseizure Medications in Human Blood‐Brain Barrier Cell Model” (Journal of Biochemical and Molecular Toxicology, 2025).

Series [1] concerns the target T1, BCRP (Homo sapiens, UniProt Q9UNQ0).
T1 sequence (Q9UNQ0 1-655): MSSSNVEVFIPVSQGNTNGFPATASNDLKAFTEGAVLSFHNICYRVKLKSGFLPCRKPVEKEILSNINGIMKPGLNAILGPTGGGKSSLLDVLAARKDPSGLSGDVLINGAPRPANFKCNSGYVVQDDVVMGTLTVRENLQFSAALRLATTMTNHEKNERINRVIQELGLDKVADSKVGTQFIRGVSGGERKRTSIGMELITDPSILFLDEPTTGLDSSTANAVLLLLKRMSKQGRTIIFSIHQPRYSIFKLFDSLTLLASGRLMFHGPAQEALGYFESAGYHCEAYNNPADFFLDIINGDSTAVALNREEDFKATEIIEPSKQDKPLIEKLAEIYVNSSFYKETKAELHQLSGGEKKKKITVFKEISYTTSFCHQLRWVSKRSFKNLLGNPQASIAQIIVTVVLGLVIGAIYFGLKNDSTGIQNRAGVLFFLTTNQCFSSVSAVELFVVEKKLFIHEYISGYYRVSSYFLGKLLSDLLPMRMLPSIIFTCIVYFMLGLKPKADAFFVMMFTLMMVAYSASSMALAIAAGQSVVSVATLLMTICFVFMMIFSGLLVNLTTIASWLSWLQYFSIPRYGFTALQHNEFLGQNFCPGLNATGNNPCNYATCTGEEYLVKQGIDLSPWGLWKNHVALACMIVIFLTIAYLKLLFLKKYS
Briefly: bidirectional transport assay across hCMEC/D3 cell monolayer with or without Ko143. To be noted: for Papp A→B at 2 h, 5 μM / Papp B→A at 2 h, 5 μM / efflux ratio at 2 h / Papp A→B at 2 h, 21 μM / Papp A→B at 2 h, 42 μM / Papp B→A at 2 h, 21 μM / Papp B→A at 2 h, 42 μM / efflux ratio at 2 h, 21 μM / efflux ratio at 2 h, 42 μM / Papp A→B at 2 h, 25 µM / Papp A→B at 2 h, […] µM / Papp B→A at 2 h, 25 µM / Papp B→A at 2 h, […] µM / Papp A→B at 2 h, 15 µM / Papp A→B at 2 h, 60 µM / Papp B→A at 2 h, 15 µM / Papp B→A at 2 h, 60 µM / efflux ratio at 2 h, 15 µM / efflux ratio at 2 h, 60 µM: human; for transport by BCRP (conclusion of bidirectional transport assay): ER ≥ 1.5 and significantly reduced by Ko143; for efflux ratio at 2 h: pH 7.4, Efflux ratio (ER) without inhibitor, at all the tested concentrations. The procedure:
For transport assays, hCMEC/D3 cells were seeded on collagen type I‐coated Transwell inserts (polycarbonate 12‐well, pore size […]) (cat. no. CLS3460; Corning, NY, USA) at 80% confluency and cultured as described in section 2.5. In brief, the drug was dissolved in Hanks’ balanced salt solution supplemented with 10 mM HEPES, 1 mM Na‐Pyruvate, pH 7.4 at 37°C (transport buffer). Initially, both sides of the chamber were washed with 1X PBS and the assay was performed with pre‐warmed transport buffer. 0.5 ml or 1.5 ml of the drug solution, with or without BCRP‐specific inhibitor Ko143 (1 μM) was added to either the apical side or basolateral side of the monolayer, respectively, and fresh transport buffer was added to the opposite side. Aliquots of 100 μl samples were taken from the opposite sides every 30 min for 2 h, and the same amount of fresh transport buffer was added to the same chamber after each sampling. […] Concentrations of ASMs were evaluated by HPLC or LC/MS. Apparent permeability (Papp) is defined as the transport rate of ASM and efflux ratio (ER) was calculated as the ratio of Papp in the basolateral‐to‐apical (Papp(B→A)) direction to the Papp in the apical‐to‐basolateral (Papp(A→B)) direction. The samples were stored at −20°C until analysis. […] Fluorescence detection of lucifer yellow (excitation at 430 nm, and emission at 535 nm) was carried out with Infinite 200 PRO NanoQuant (Tecan, Zurich, Switzerland). […] All transport assays were performed in triplicate.
The calculation for apparent permeability coefficient, Papp, was performed as described before. Papp=dQr/dt/A×C0 where dQr/dt is the cumulative amount in the receiver side vs time in μM/s
A is the area of the cell monolayer
C0 is the initial concentration of the dosing solution (μM).
And, Efflux ratio=Papp(B−to−A)/Papp(A−to−B)

On the set-up of series [2]: method as in Johannessen, 2004; Patsalos, 2008; Lee, 2016. Conditions: patients with epilepsy; ref Johannessen, 2004; Patsalos, 2008; Lee, 2016; cited from earlier work.
Series [3] has as its target T1, BCRP. Briefly: competitive substrate efflux assay (BODIPY-prazosin accumulation) in hCMEC/D3 cells. In kind it is cell-based. As to the method: The potential of ASMs to compete with a known fluorescent substrate of BCRP, BPZ in hCMEC/D3 cells was examined using a competitive substrate efflux assay that has previously been used in various studies. The interaction of CBZ, DCLB, OXC, TPM, and LEVI with BCRP was evaluated. Initially, hCMEC/D3 were seeded in 12‐well plates (cat. no. 150628, Nunc, Thermo Fisher Scientific, MA, USA) at 70‐80% confluency for 24 h. In this study, Ko143 was used for BCRP inhibition. The cultured cells were incubated at 37°C for half an hour in media containing BPZ with either the test ASMs or Ko143. Cells were washed with chilled 1X PBS three times and again incubated at 37°C for 1 h 30 min in BPZ‐free media with or without Ko143. Cells were washed three times with ice‐cold 1X PBS to terminate the assay. Cell lysis was performed by adding 1% triton X‐100, followed by incubating the cells for 15 min at 37°C. 20 µl of cell lysate was placed in 384‐well black assay plates for fluorescence detection (excitation at 488 nm; emission at 530 nm) to Infinite 200 PRO NanoQuant (Tecan, Zurich, Switzerland). The rest of the cell lysate was used for determining protein levels using the BCA protein estimation method to normalize the observed fluorescence intensity with total protein yield. The data were shown as a fold increment in intracellular fluorescence of BPZ relative to the control.

Series [4] addresses T1, BCRP. The arrangement: host or cells: MCF-7 cells overexpressing BCRP. To be noted: previous study; cited from earlier work.
In series [5] the target is T1, BCRP. The series is described as follows: vanadate-sensitive BCRP ATPase assay (membrane vesicles from MCF-7 cells overexpressing BCRP). Type of series: biochemical. Details: host or cells: MCF-7 cells overexpressing BCRP. Conditions: 40 µM. The procedure:
To assess the interaction between ASMs and BCRP, a vanadate‐sensitive ATPase assay was performed as per the manufacturer's instructions manual. […] After 10 min, 1x developer solution was added and kept for 2 min. To stop the reaction, 100 µL blocker solution was added and incubated for 30 min. at 37°C. The optical densities were measured at 620 nm using an Infinite 200 PRO NanoQuant (Tecan, Zurich, Switzerland) plate reader. 1 μM Ko143 was used as a positive control for BCRP inhibition. Ko143 was used at a concentration that is known to inhibit BCRP efficiently. The results were expressed as vanadate‐sensitive ATPase activity that is based on the difference in inorganic phosphate released between samples with and without vanadate. This will evaluate the ability of the test ASM to stimulate BCRP's baseline ATPase activity.

In general, Papp A→B refers to how fast a substance crosses the layer from the apical side. High values mean fast passage, low ones slow passage. In general, Papp B→A refers to how fast a substance crosses the layer from the basolateral side. In series [1] (pH 7.4), `O=C1c2c(O)ccc(O)c2C(=O)c2c(NCCNCCO)ccc(NCCNCCO)c21` [MXR, mitoxantrone] displayed a Papp A→B at 2 h, 5 μM of 5.1 ×10⁻⁶ cm/s and an apparent permeability from basolateral to apical (Papp B→A) at 2 h, 5 μM of 12.7 ×10⁻⁶ cm/s. In series [1] (pH 7.4, with Ko143 1 μM), this compound yielded a Papp A→B at 2 h, 5 μM of 10.2 ×10⁻⁶ cm/s and a Papp B→A at 2 h, 5 μM of 10.6 ×10⁻⁶ cm/s.

In general, efflux ratio refers to the permeability from basolateral to apical divided by that in the opposite direction, in the common usage. In the case of `CC[C@@H](C(N)=O)N1CCCC1=O` [LEVI, levetiracetam], in series [2], the “Therapeutic plasma concentration range” value is 35 to 120 µM. For the same compound, in series [1] (hCMEC/D3 monolayer), the “transport by BCRP (conclusion of bidirectional transport assay)” value (shortened to “transport by BCRP”) is given as “not” and the efflux ratio at 2 h is less than 1.5. The directional transport entry in series [1] (hCMEC/D3 monolayer, data not shown) is recorded as “did not show any directional transport”. The “intracellular accumulation of BPZ in hCMEC/D3 cells” value (“intracellular accumulation of BPZ” below) in series [3] is reported as “did not affect”. In addition, the “stimulation of BCRP ATPase activity” value in series [4] is recorded as “no significant stimulation”.

As to `NC(=O)N1c2ccccc2C=Cc2ccccc21` [CBZ, carbamazepine], the “Therapeutic plasma concentration range” value in series [2] was 15 to 45 µM. Further, in series [1] (hCMEC/D3 monolayer), the “transport by BCRP” value is “not” and the efflux ratio at 2 h is less than 1.5. In addition, in series [1] (pH 7.4), the Papp A→B at 2 h, 21 μM was found to be 3.37 ×10⁻⁶ cm/s; the Papp A→B at 2 h, 42 μM came out at 3.37 ×10⁻⁶ cm/s; the Papp B→A at 2 h, 21 μM stood at 4.27 ×10⁻⁶ cm/s; the Papp B→A at 2 h, 42 μM was 4.04 ×10⁻⁶ cm/s. In series [1] (pH 7.4, Efflux ratio (ER), hCMEC/D3 without inhibitor Ko143, 21 μM, hCMEC/D3 monolayer), the efflux ratio at 2 h, 21 μM was found to be 1.23. Moreover, in series [1] (pH 7.4, Efflux ratio (ER), hCMEC/D3 without inhibitor Ko143, 42 μM, hCMEC/D3 monolayer), the efflux ratio at 2 h, 42 μM is 1.18. Besides, in series [1] (pH 7.4, with Ko143 1 μM), the Papp A→B at 2 h, 21 μM is 4.72 ×10⁻⁶ cm/s; the Papp A→B at 2 h, 42 μM worked out at 3.82 ×10⁻⁶ cm/s; the Papp B→A at 2 h, 21 μM came to 3.03 ×10⁻⁶ cm/s; the Papp B→A at 2 h, 42 μM is 4.27 ×10⁻⁶ cm/s. Also, in series [1] (pH 7.4, with Ko143 1 μM, Efflux ratio (ER), hCMEC/D3 with inhibitor Ko143, 21 μM, hCMEC/D3 monolayer, 1 μM Ko143), the efflux ratio at 2 h, 21 μM came out at 0.98. The efflux ratio at 2 h, 42 μM in series [1] (pH 7.4, with Ko143 1 μM, Efflux ratio (ER), hCMEC/D3 with inhibitor Ko143, 42 μM, hCMEC/D3 monolayer, 1 μM Ko143) came out at 1.12. In addition, the “intracellular accumulation of BPZ” value in series [3] was “did not affect”. Also, in series [4], the “stimulation of BCRP ATPase activity” value is “no significant stimulation”.

`NC(=O)N1c2ccccc2CC(=O)c2ccccc21` [OXC, oxcarbazepine]: the “stimulation of BCRP ATPase activity (activation assay)” value in series [5] is reported as “significantly stimulated”. Also, the “transport by BCRP” value in series [1] (hCMEC/D3 monolayer) was “transports”. In addition, in series [1] (pH 7.4), the Papp A→B at 2 h, 25 µM stood at 2.64 ×10⁻⁶ cm/s; the Papp A→B at 2 h, […] µM stood at 16.5 ×10⁻⁶ cm/s; the Papp B→A at 2 h, 25 µM was 4.72 ×10⁻⁶ cm/s; the Papp B→A at 2 h, […] µM came out at 39.4 ×10⁻⁶ cm/s. In series [1] (pH 7.4, with Ko143 1 μM), this compound showed a Papp A→B at 2 h, 25 µM of 3.21 ×10⁻⁶ cm/s; a Papp A→B at 2 h, […] µM of 140 ×10⁻⁶ cm/s; a Papp B→A at 2 h, 25 µM of 3.59 ×10⁻⁶ cm/s; a Papp B→A at 2 h, […] µM of 169 ×10⁻⁶ cm/s. In addition, the “BPZ accumulation in hCMEC/D3 cells” value in series [3] ([…] and […] µM) is “significantly increased”.

As to `CC1(C)O[C@@H]2[C@@H](CO[C@@]3(COS(N)(=O)=O)OC(C)(C)O[C@@H]23)O1` [TPM, topiramate], the “Therapeutic plasma concentration range” value in series [2] is 15 to 60 µM. Further, in series [1] (hCMEC/D3 monolayer), the “transport by BCRP” value is reported as “not” and the efflux ratio at 2 h was less than 1.5. In series [1] (pH 7.4), this compound registered a Papp A→B at 2 h, 15 µM of 0.71 ×10⁻⁶ cm/s; a Papp A→B at 2 h, 60 µM of 20 ×10⁻⁶ cm/s; a Papp B→A at 2 h, 15 µM of 0.71 ×10⁻⁶ cm/s; a Papp B→A at 2 h, 60 µM of 25.5 ×10⁻⁶ cm/s. Moreover, in series [1] (pH 7.4, Efflux ratio (ER), hCMEC/D3 without inhibitor Ko143, 15 μM, hCMEC/D3 monolayer), the efflux ratio at 2 h, 15 µM is 1.06. Further, in series [1] (pH 7.4, Efflux ratio (ER), hCMEC/D3 without inhibitor Ko143, 60 μM, hCMEC/D3 monolayer), the efflux ratio at 2 h, 60 µM amounted to 1.17. Further, in series [1] (pH 7.4, with Ko143 1 μM), the Papp A→B at 2 h, 15 µM turned out to be 12.3 ×10⁻⁶ cm/s; the Papp A→B at 2 h, 60 µM turned out to be 159 ×10⁻⁶ cm/s; the Papp B→A at 2 h, 15 µM turned out to be 14.2 ×10⁻⁶ cm/s; the Papp B→A at 2 h, 60 µM came out at 190 ×10⁻⁶ cm/s. For the same compound, the efflux ratio at 2 h, 15 µM in series [1] (pH 7.4, with Ko143 1 µM, Efflux ratio (ER), hCMEC/D3 with inhibitor Ko143, 15 μM, hCMEC/D3 monolayer, 1 μM Ko143) stood at 1.16. Moreover, the efflux ratio at 2 h, 60 µM in series [1] (pH 7.4, with Ko143 1 µM, Efflux ratio (ER), hCMEC/D3 with inhibitor Ko143, 60 μM, hCMEC/D3 monolayer, 1 μM Ko143) stood at 1.13. Further, the “intracellular accumulation of BPZ” value in series [3] is recorded as “did not affect”. In series [4], the “stimulation of BCRP ATPase activity” value is given as “no significant stimulation”.
